Results: PMC11405510 (Scientific Reports, 2024)

Biological target: T1, Ha006a (Helicoverpa armigera, UniProt D5G3E0)
T1 sequence (D5G3E0 25-548): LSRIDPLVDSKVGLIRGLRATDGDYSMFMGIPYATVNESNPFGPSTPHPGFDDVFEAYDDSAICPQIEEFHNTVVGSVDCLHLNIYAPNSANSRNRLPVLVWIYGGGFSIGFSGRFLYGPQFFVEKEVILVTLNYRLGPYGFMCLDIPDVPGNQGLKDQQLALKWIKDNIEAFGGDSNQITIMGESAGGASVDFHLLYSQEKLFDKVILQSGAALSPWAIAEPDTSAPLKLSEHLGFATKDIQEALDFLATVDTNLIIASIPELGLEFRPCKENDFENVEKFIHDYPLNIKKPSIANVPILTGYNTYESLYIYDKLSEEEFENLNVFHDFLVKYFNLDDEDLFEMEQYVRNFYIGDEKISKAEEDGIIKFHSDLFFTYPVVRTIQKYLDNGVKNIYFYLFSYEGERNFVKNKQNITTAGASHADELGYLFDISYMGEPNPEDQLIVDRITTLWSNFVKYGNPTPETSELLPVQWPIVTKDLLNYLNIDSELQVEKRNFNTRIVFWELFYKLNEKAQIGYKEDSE
Test: Differential scanning calorimetry of Ha006a-ligand complexes
Type: binding
Conditions: DSC; for Tm1 (°C) ± SE: first thermal transition, 50 μM protein, non-two-state fit; for Tm2 (°C) ± SE: second thermal transition; for Tm3 (°C) ± SE: third thermal transition

Compound	Tm1 (°C) ± SE	ΔH (molar heat enthalpy) (first transition (Tm1))	ΔHv (van't Hoff enthalpy) (first transition (Tm1))	ΔHv/ΔH (first transition (Tm1))	Tm2 (°C) ± SE	ΔH (molar heat enthalpy) (second transition (Tm2))	ΔHv (van't Hoff enthalpy) (second transition (Tm2))	ΔHv/ΔH (second transition (Tm2))	Tm3 (°C) ± SE	ΔH (molar heat enthalpy) (third transition (Tm3))	ΔHv (van't Hoff enthalpy) (third transition (Tm3))	ΔHv/ΔH (third transition (Tm3))
COc1cc(OC)c2c(=O)cc(-c3ccc(OC)c(OC)c3)oc2c1 [3′,4′,5,7-Tetramethoxyflavone]	Tm1 51.52 ± 0.25 °C	584000 kcal/mol	34000 kcal/mol	0.06	Tm2 79.01 ± 0.98 °C	957000 kcal/mol	35300 kcal/mol	0.04	Tm3 91.76 ± 0.43 °C	358000 kcal/mol	58800 kcal/mol	0.16
O=C(/C=C/C=C/c1ccc2c(c1)OCO2)N1CCCCC1 [Piperine]	Tm1 51.30 ± 0.32 °C	218000 kcal/mol	43300 kcal/mol	0.20	Tm2 65.47 ± 0.33 °C	209000 kcal/mol	40800 kcal/mol	0.20	Tm3 80.80 ± 0.36 °C	44600 kcal/mol	40900 kcal/mol	0.92
CN1CCc2cc3c(cc2C(=O)Cc2ccc4c(c2C1)OCO4)OCO3 [Protopine]	Tm1 49.93 ± 0.55 °C	630000 kcal/mol	43200 kcal/mol	0.07	Tm2 66.76 ± 0.33 °C	1.87e+06 kcal/mol	31500 kcal/mol	0.02	Tm3 86.29 ± 0.67 °C	783000 kcal/mol	40100 kcal/mol	0.05
O=P(Oc1ccccc1)(Oc1ccccc1)Oc1ccccc1 [Triphenyl phosphate, reference compound]	Tm1 51.32 ± 1.70 °C	457000 kcal/mol	35900 kcal/mol	0.08	Tm2 67.66 ± 0.26 °C	1.31e+06 kcal/mol	66800 kcal/mol	0.05	Tm3 78.21 ± 0.44 °C	472000 kcal/mol	89500 kcal/mol	0.19
